According to patent US9120749B2, “Quinoline derivatives and MELK inhibitors containing the same” (ONCOTHERAPY SCIENCE, INC., priority 2010, dated 2015):
Counter-ions that a name gives are not always drawn.

Legend:
HT-1197 cells = test: Cell-based assay: anti-proliferative activity, Cell Counting Kit-8, 72 hours (HT-1197, negative control without MELK expression); conditions: Homo sapiens, HT1197, 72 h, HT1197 cells (negative control), 72 hours
In short: (§1)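 T47D, A549 and BT-549 cells, with MELK-negative HT-1197 as control (MELK status checked by western blot), seeded at 2,000–3,000 cells/well. Growth measured by CCK-8 72 hours after inhibitor exposure; IC50 values calculated.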

T47D cells = test: Cell-based assay: anti-proliferative activity, Cell Counting Kit-8, 72 hours (T47D); conditions: Homo sapiens, T47D, 72 h
In short: as §1

DU4475 cells = test: Cell-based assay: anti-proliferative activity, Cell Counting Kit-8, 72 hours (DU4475); conditions: Homo sapiens, DU-4475
22Rv1 cells = test: Cell-based assay: anti-proliferative activity, Cell Counting Kit-8, 72 hours (22Rv1); conditions: Homo sapiens
A549 cells = test: Cell-based assay: anti-proliferative activity, Cell Counting Kit-8, 72 hours (A549); conditions: Homo sapiens, A549, 72 h, 72 hours
In short: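 A549 cells seeded in 96-well plates and exposed to candidate inhibitors for 72 hours. Growth measured with Cell Counting Kit-8; IC50 values calculated from the dose response.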

Row | Compound | IC50 (T47D cells) | IC50 (22Rv1 cells) | IC50 (A549 cells) | IC50 (HT-1197 cells) | IC50 (DU4475 cells)
1 | CC(=O)c1cnc2cc(C)c(-c3cc(Cl)c(O)c(Cl)c3)cc2c1N[C@H]1CC[C@H](CN2CCC(N)C2)CC1 (stereo partly drawn) [Example 872, 1-(4-((1R,4R)-4-((3-aminopyrrolidin-1-yl)methyl)cyclohexyl)amino)-6-(3,5-dichloro-4-hydroxyphenyl)-7-methylquinolin-3-yl)ethanone hydrochloride] | 17 µM | 14 µM | 100 µM | 100 µM | 0.26 µM
2 | CS(=O)(=O)c1cnc2ccc(-c3cc(Cl)c(O)c(Cl)c3)cc2c1Nc1cccc(CCN2CCCC2)c1 [Example 883, 2,6-dichloro-4-(3-(methylsulfonyl)-4-((3-(2-(pyrrolidin-1-yl)ethyl)phenyl)amino)quinolin-6-yl)phenol hydrochloride] | 1.4 µM | 1.5 µM | 1.9 µM | 100 µM | 0.53 µM
3 | CN(C)C1CCN(c2ccc(Nc3c(S(C)(=O)=O)cnc4ccc(-c5cc(Cl)c(O)c(Cl)c5)cc34)cn2)C1 (stereo not shown) [Example 906, 2,6-dichloro-4-(4-((6-(3-(dimethyl-amino)pyrrolidin-1-yl)pyridin-3-yl)amino)-3-(methylsulfonyl)quinolin-6-yl)phenol hydrochloride] | 1.3 µM | 2 µM | 2 µM | 9.3 µM | 0.66 µM
4 | O=C(c1cnc2ccc(-c3cc(Cl)c(O)c(Cl)c3)cc2c1Nc1cccc(CCN2CCCC2)c1)C1CCCC1 [Example 927, cyclopentyl(6-(3,5-dichloro-4-hydroxy-phenyl)-4-((3-(2-(pyrrolidin-1-yl)ethyl)phenyl)amino)quinolin-3-yl) methanone hydrochloride] | 1.3 µM | 0.78 µM | 0.71 µM | 12 µM | 0.48 µM

Now from value to compound, other results behind:

Row | IC50 (T47D cells) | IC50 (22Rv1 cells) | IC50 (A549 cells) | Compound | IC50 (HT-1197 cells) | IC50 (DU4475 cells)
5 | 1.4 µM | 2 µM | 4.1 µM | CC(N)C(=O)N[C@H]1CC[C@H](Nc2c(C(=O)C(C)(C)C)cnc3ccc(-c4cc(Cl)c(O)c(Cl)c4)cc23)CC1 (stereo partly drawn) [Example 928, 2-amino-N-((1R,4R)-4-((6-(3,5-dichloro-4-hydroxyphenyl)-3-pivaloyl-quinolin-4-yl)amino)cyclohexyl) propanamide hydrochloride] | 8.1 µM | 1.1 µM
6 | 0.7 µM | 0.91 µM | 0.68 µM | CN(C)C[C@H]1CC[C@H](Nc2c(C(=O)C3CCCC3)cnc3ccc(-c4cc(Cl)c(O)c(Cl)c4)cc23)CC1 [Example 917, cyclopentyl(6-(3,5-dichloro-4-hydroxy-phenyl)-4-((1R,4R)-4-((dimethyl-amino)methyl)cyclohexyl)amino) quinolin-3-yl)methanone hydrochloride] | 3.3 µM | 0.19 µM
7 | 0.2 µM | 0.65 µM | 0.62 µM | CC(=O)c1cnc2ccc(-c3cc(Cl)c(O)c(Cl)c3)cc2c1N[C@H]1CC[C@H](NC(=O)[C@@H](N)C(C)(C)C)CC1 [Example 922, (S)-N-((1r,4S)-4-((3-acetyl-6-(3,5-dichloro-4-hydroxyphenyl)quinolin-4-yl)amino)cyclohexyl)-2-amino-3,3-dimethylbutanamide hydrochloride] | 4.5 µM | 0.21 µM
8 | 0.14 µM | 0.3 µM | 0.28 µM | CCN(CC)CCO[C@H]1CC[C@H](Nc2c(C(C)=O)cnc3ccc(-c4cc(Cl)c(O)c(Cl)c4)cc23)CC1 [Example 868, 1-(6-(3,5-dichloro-4-hydroxyphenyl)-4-((1R,4R)-4-(2-(diethylamino)ethoxy)cyclohexyl)amino)quinolin-3-yl)ethanone hydrochloride] | 2.8 µM | 0.29 µM
